Assays:
Assay type in all cases: in vivo
GPA (Myzus persicae) = test: Bioassays on Green Peach Aphid (GPA), foliar spray on cabbage seedlings; conditions: 72 h, corrected % control (Abbott), 200 ppm spray on cabbage seedlings, three days, read-out: GPA Rating
Description: Bioassays on Green Peach Aphid (“GPA”) (Myzus persicae) Certain molecules disclosed in this document were tested against GPA using procedures described in the following example. In the reporting of the results, the “GPA Rating Table” was used (See Table Section). Cabbage seedlings grown in 3-inch pots, with 2-3 small (3-5 cm) true leaves, were used as test substrate. The seedlings were infested with 20-50 GPA (wingless adult and nymph stages) one day prior to chemical application. Four pots with individual seedlings were used for each treatment. Test compounds (2 mg) were dissolved in 2 mL of acetone/MeOH (1:1) solvent, forming stock solutions of 1000 ppm test compound. The stock solutions were diluted 5× with 0.025% Tween 20 in H2O to obtain the solution at 200 ppm test compound. A hand-held aspirator-type sprayer was used for spraying a solution to both sides of […] leaves until runoff. Reference plants (solvent check) were sprayed with the diluent only containing 20% by volume of acetone/MeOH (1:1) solvent. Treated plants were held in a holding room for three days at approximately 25° C. and ambient relative humidity (RH) prior to grading. Evaluation was conducted by counting the number of live aphids per plant under a microscope. Percent Control was measured by using Abbott's correction formula (W. S. Abbott, “A Method of Computing the Effectiveness of an Insecticide” J. Econ. Entomol. 18 (1925), pp. 265-267) as follows. Corrected % Control=100*(X−Y)/X • where • X=No. of live aphids on solvent check plants and • Y=No. of live aphids on treated plants The results are indicated in the table entitled “Table 3: Assay Results” (See Table Section).

CEW (Helicoverpa zea) = test: Bioassays on Corn Earworm (CEW), 128-well diet tray assay; conditions: Helicoverpa zea, 168 h; percent mortality, second instar larvae, 50 μg/cm^2 on artificial diet, five to seven days, 25° C.; read-out: CEW Rating
How it was run: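 Second-instar larvae (one to five per well) placed on artificial diet treated with 50 μg/cm^2 compound in 90:10 acetone-water and dried, eight wells per compound. Held 25 °C, 14:10 light-dark, five to seven days; percent mortality scored per well and averaged.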

BAW (Spodoptera exigua) = test: Bioassays on Beet Armyworm (BAW), 128-well diet tray assay; conditions: Spodoptera exigua, 168 h, read-out: BAW Rating
How it was run: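 Second-instar larvae (one to five per well) placed on artificial diet treated with 50 μg/cm^2 compound in 90:10 acetone-water, eight wells per compound. Held covered at 25° C., 14:10 light-dark for five to seven days; percent mortality averaged across wells.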

SMILES | pest or weed control at 200 ppm (GPA (Myzus persicae)) | pest or weed control at 50 µg/cm2 (CEW (Helicoverpa zea)) | pest or weed control at 50 µg/cm2 (BAW (Spodoptera exigua))
CNC(=O)c1ccc(/C=C/C(c2cc(Cl)cc(Cl)c2)C(F)(F)F)cc1 (stereo not shown) [AC1] | 0 to 80% | – | –
CN(C)C(=O)c1ccc(/C=C/C(c2cc(Cl)cc(Cl)c2)C(F)(F)F)cc1 (stereo not shown) [AC3] | 0 to 80% | – | –
O=C(NCC(F)(F)F)c1ccc(/C=C/C(c2cc(Cl)cc(Cl)c2)C(F)(F)F)cc1 (stereo not shown) [AC4] | 0 to 80% | 50 to 100% | –
O=C(c1ccc(/C=C/C(c2cc(Cl)cc(Cl)c2)C(F)(F)F)cc1)N1CCOCC1 (stereo not shown) [AC5] | 0 to 80% | – | –
Cc1cc(/C=C/C(c2cc(Cl)cc(Cl)c2)C(F)(F)F)ccc1C(=O)NCC(F)(F)F (stereo not shown) [AC6, (E)-4-(3-(3,5-Dichlorophenyl)-4,4,4-trifluorobut-1-enyl)-2-methyl-N-(2,2,2-trifluoroethyl)benzamide] | 0 to 80% | 50 to 100% | –
Cc1cc(/C=C/C(c2cc(Cl)cc(Cl)c2)C(F)(F)F)ccc1C(=O)NCc1ccc(Cl)nc1 (stereo not shown) [AC7] | 0 to 80% | 50 to 100% | 50 to 100%
Cc1cc(/C=C/C(c2cc(Cl)cc(Cl)c2)C(F)(F)F)ccc1C(=O)N1CCCC1=O (stereo not shown) [AC8] | 0 to 80% | 0 to 50% | –
Cc1cc(/C=C/C(c2cc(Cl)cc(Cl)c2)C(F)(F)F)ccc1C(=O)NCc1ccccc1F (stereo not shown) [AC9] | 0 to 80% | 50 to 100% | 50 to 100%
Cc1cc(/C=C/C(c2cc(Cl)cc(Cl)c2)C(F)(F)F)ccc1C(=O)NC1CSC1 (stereo not shown) [AC10] | 0 to 80% | 50 to 100% | 50 to 100%
Cc1cc(/C=C/C(c2cc(Cl)cc(Cl)c2)C(F)(F)F)ccc1C(=O)NC1CS(=O)(=O)C1 (stereo not shown) [AC13] | 0 to 80% | 50 to 100% | 50 to 100%
Cc1cc(/C=C/C(c2cc(Cl)cc(Cl)c2)C(F)(F)F)ccc1C(=O)NCc1cnc(Cl)s1 (stereo not shown) [AC15] | 0 to 80% | 50 to 100% | 50 to 100%
Cc1cc(/C=C/C(c2cc(Cl)cc(Cl)c2)C(F)(F)F)ccc1C(=O)NNc1ccccc1F (stereo not shown) [AC17] | 0 to 80% | 50 to 100% | 50 to 100%
Cc1cc(/C=C/C(c2cc(Cl)cc(Cl)c2)C(F)(F)F)ccc1C(=O)NCc1ncccn1 (stereo not shown) [AC18] | 0 to 80% | 50 to 100% | 50 to 100%
Cc1cc(/C=C/C(c2cc(Cl)cc(Cl)c2)C(F)(F)F)ccc1C(=O)NCC1CCOC1 (stereo not shown) [AC19] | 0 to 80% | – | –
Cc1cc(/C=C/C(c2cc(Cl)c(Cl)c(Cl)c2)C(F)(F)F)ccc1C(=O)NC1CSC1 (stereo not shown) [AC23] | 0 to 80% | 50 to 100% | 50 to 100%
Cc1cc(/C=C/C(c2cc(Cl)c(Cl)c(Cl)c2)C(F)(F)F)ccc1C(=O)NCc1cnc(Cl)s1 (stereo not shown) [AC26] | 0 to 80% | 50 to 100% | 50 to 100%
Cc1cc(/C=C/C(c2cc(Cl)c(Cl)c(Cl)c2)C(F)(F)F)ccc1C(=O)NC(C)(C)c1ccccn1 (stereo not shown) [AC27] | 0 to 80% | 50 to 100% | 50 to 100%
O=C(NCc1ccc(Cl)nc1)c1ccc(/C=C/C(c2cc(Cl)c(Cl)c(Cl)c2)C(F)(F)F)cc1Cl (stereo not shown) [AC28] | 0 to 80% | 50 to 100% | 50 to 100%
O=C(NC1CSC1)c1ccc(/C=C/C(c2cc(Cl)c(Cl)c(Cl)c2)C(F)(F)F)cc1Cl (stereo not shown) [AC29] | 0 to 80% | 50 to 100% | 50 to 100%
O=C(NC1CS(=O)(=O)C1)c1ccc(/C=C/C(c2cc(Cl)c(Cl)c(Cl)c2)C(F)(F)F)cc1Cl (stereo not shown) [AC30] | 0 to 80% | 50 to 100% | 50 to 100%
O=C(NCc1ccc(Cl)nc1)c1ccc(/C=C/C(c2cc(Cl)c(Cl)c(Cl)c2)C(F)(F)F)cc1Br (stereo not shown) [AC31] | 0 to 80% | 50 to 100% | 50 to 100%

— US9210927B2, “Pesticidal compositions and processes related thereto” (Dow AgroSciences LLC, priority 2013, dated 2015)
